# Entries after “also recorded” stand apart in the source; their conditions may differ.
# Tests used:
# [1] = system: pp59Lyn and Gce1 interaction with caveolin-1 in rat adipocytes; assay: dissociation of signaling proteins from caveolin (caveolin-1 immunoprecipitates of hcDIGs); format: cell-based; details: 50 μM
# Procedure: Solubilized DIGs (see above, 5-20 μg protein) were precleared by incubation with protein A/G-Sepharose and subsequent centrifugation (10,000×g, 5 min). The supernatant was incubated with anti-caveolin-1 antibodies (1:1000) preadsorbed on protein A/G-Sepharose in 1 ml of 10 mM Tris/HCl (pH 7.4), 150 mM NaCl, 1% TX-100 for 1 h at 4° C. The immune complexes were washed twice with the same buffer and then twice with buffer lacking TX-100 and finally subjected to SDS-PAGE performed in the absence of β-mercaptoethanol. The recovery of immunoprecipitated caveolin was normalized by homologous immunoblotting with anti-caveolin antibodies of the same blot following stripping of the membrane.
# Polypeptides separated by SDS-PAGE were transferred to polyvinylidene difluoride membranes using the semidry procedure as described in “Müller, G. et al., (2001) Mol. Cell. Biol. 21: 4553-4567”. Washed membranes were incubated with anti-caveolin-1 (1:2000), anti-pp59^Lyn (1:1250), anti-aP (1:500), anti-5′-Nuc (1:750) and anti-IRS-1 (1:2000) antibodies for 4 h at 15° C. Washed membranes were incubated with horseradish peroxidase-coupled secondary goat anti-mouse (1:2000) or goat anti-rabbit IgG (1:4000) antibodies. Labeled proteins were visualized by enhanced chemiluminescence.
# FIG. 6: Effect of GPI-2350 on the glimepiride/insulin-induced dissociation of signaling proteins from caveolin. Isolated rat adipocytes were treated (5 min, 37° C.) without or with GPI-2350 (left panels, 50 μM; right panels, increasing conc.) and then incubated (120 min, 37° C.) in the absence or presence of insulin (10 nM) or glimepiride (20 μM). hcDIGs were prepared from the adipocytes and then solubilized. Caveolin-1 immunoprecipitates prepared from the solubilized hcDIGs were assayed for the presence of pp59^Lyn and Gce1 by immunoblotting and photoaffinity-labeling, respectively. […]
# [2] = target: T1, porcine pancreatic lipase (PL) (Sus scrofa, UniProt P00591); assay: pancreatic lipase assay (tributyrin, pH stat); format: biochemical; details: 50 μM
# T1 construct: crude porcine pancreatic lipase (PL); purchased SigmalAldrich (Deisenhofen, Germany); host or cells: porcine pancreas (crude preparation)
# Procedure: Hormone-sensitive lipase (HSL) and lipoprotein lipase (LPL) were measured using a radiolabeled triolein droplet emulsion as described in “Vertesy et al., (2002) Journal Antibiotics 55:480-494”. Pancreatic lipase (PL) was determined by incubation of 0.25 mmol tributyrin in 2 ml of 5 mM Tris/HCl (pH 6.5), 6 mM sodium taurodeoxycholate, 150 mM NaCl, 1 mM CaCl2 with porcine PL and colipase in the same buffer using a recording pH stat (stirring at 1000 rpm at 25° C.) with the pH adjusted to 6.5. PC-PLC was assayed by incubation of 0.2 ml of 10 mM dipalmitoyllecithin, 0.1 ml of 10 mM SDC and 0.1 ml of 0.03 M CaCl2 with bacterial PC-PLC (in 50 mM Tris/HCl, pH 7.5, 0.1% BSA) for 10 min at 37° C. The reaction was terminated by addition of 0.1 ml of 50% TCA and subsequently of 2.5 ml of […]. After centrifugation (1500×g, 15 min), 0.2-ml portions of the upper methanol/water phase (˜1.33 ml) were removed, supplemented with 0.5 ml of 60% HClO4, then heated at 170° C. for 1 h and finally analyzed for inorganic phosphate. Mammalian PI-PLC was measured by incubation of 0.1 ml of 10 mM PI, 0.1 ml of 0.8% sodium deoxycholate, 0.1% BSA, 0.2 ml of 100 mM sodium borate (pH 7.5) and rat liver PI-PLC for 20 min at 37° C. The reaction was terminated and further processed as described for the PC-PLC. […] Radioactive phosphatidic acid was detected by phosphorimaging. […]
# T1 sequence (P00591 whole entry): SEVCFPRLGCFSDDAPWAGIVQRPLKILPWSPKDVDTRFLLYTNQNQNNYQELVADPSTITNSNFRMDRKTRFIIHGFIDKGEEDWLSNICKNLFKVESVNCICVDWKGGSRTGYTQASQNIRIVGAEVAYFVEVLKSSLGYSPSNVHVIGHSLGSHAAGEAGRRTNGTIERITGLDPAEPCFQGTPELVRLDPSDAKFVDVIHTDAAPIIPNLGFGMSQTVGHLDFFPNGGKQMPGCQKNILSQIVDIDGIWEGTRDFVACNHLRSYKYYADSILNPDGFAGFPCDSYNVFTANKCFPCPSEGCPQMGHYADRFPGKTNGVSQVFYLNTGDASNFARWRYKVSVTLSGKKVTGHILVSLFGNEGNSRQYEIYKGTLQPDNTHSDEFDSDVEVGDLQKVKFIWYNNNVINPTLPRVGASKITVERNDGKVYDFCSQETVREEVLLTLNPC
# T1 sequence (P02703 23-112 partner): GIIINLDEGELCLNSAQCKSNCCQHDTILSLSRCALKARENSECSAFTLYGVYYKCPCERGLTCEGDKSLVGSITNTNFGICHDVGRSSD
smiles,measurement,setting,value
"CCCCCCCCCCCCP1(=O)O[C@@H]2[C@H](O)[C@@H](O)[C@H](O)[C@@H](O)[C@@H]2O1 (some centres unmarked) [GPI-2350, myo-inositol-1,2-cyclo-dodecylphosphonic acid]",effect on insulin-/glimepiride-induced dissociation of pp59Lyn and Gce1 from caveolin,[1],completely abrogated; also recorded: almost complete blockade
same,effect on PL,[2],not significantly affected
